Assay: xn = mol fraction of the nth substance listed
Conditions: 101 kPa, Liquid; for speed of sound: Linear variable-path acoustic interferometer

ClC(Cl)Cl [trichloromethane] + CCCCO
Conditions | mass density, 298.15 K [kg/m3] | mass density, 308.15 K [kg/m3] | speed of sound, 298.15 K [m/s] | speed of sound, 308.15 K [m/s] | viscosity, 298.15 K [mPa·s] | viscosity, 308.15 K [mPa·s]
x1 = 0.0512 | 836.7 | 828.27 | 1215 | 1190 | 2.407 | 1.883
x1 = 0.1 | 865.9 | 857 | 1198 | 1171 | 2.248 | 1.764
x1 = 0.149 | 895.66 | 886.25 | 1180 | 1153 | 2.056 | 1.628
x1 = 0.2009 | 927.49 | 917.55 | 1163 | 1134 | 1.872 | 1.501
x1 = 0.2506 | 958.3 | 947.84 | 1146 | 1116 | 1.705 | 1.372
x1 = 0.2999 | 989.27 | 978.3 | 1130 | 1099 | 1.543 | 1.26
x1 = 0.3659 | 1031.4 | 1019.75 | 1110 | 1078 | 1.351 | 1.114
x1 = 0.407 | 1057.94 | 1045.83 | 1097 | 1065 | 1.245 | 1.035
x1 = 0.4515 | 1087.02 | 1074.42 | 1085 | 1051 | 1.139 | 0.957
x1 = 0.4997 | 1118.91 | 1105.67 | 1071 | 1037 | 1.041 | 0.886
x1 = 0.5502 | 1152.78 | 1138.99 | 1058 | 1024 | 0.945 | 0.815
x1 = 0.6012 | 1187.46 | 1173.05 | 1045 | 1011 | 0.877 | 0.76
x1 = 0.6527 | 1223.02 | 1207.99 | 1033 | 998 | 0.804 | 0.71
x1 = 0.7021 | 1257.69 | 1241.99 | 1022 | 987 | 0.755 | 0.67
x1 = 0.7519 | 1293.2 | 1276.84 | 1013 | 978 | 0.715 | 0.643
x1 = 0.8021 | 1329.4 | 1312.4 | 1004 | 969 | 0.67 | 0.607
x1 = 0.8518 | 1365.91 | 1348.31 | 997 | 962 | 0.654 | 0.595
x1 = 0.9024 | 1403.63 | 1385.4 | 992 | 956 | 0.614 | 0.565
x1 = 0.951 | 1440.79 | 1421.97 | 987 | 952 | 0.596 | 0.546
x1 = 1 | 1478.82 | 1459.45 | 985 | 950 | 0.556 | 0.513

ClC(Cl)Cl [trichloromethane] + CCCO
Conditions | mass density, 298.15 K [kg/m3] | mass density, 308.15 K [kg/m3] | speed of sound, 298.15 K [m/s] | speed of sound, 308.15 K [m/s] | viscosity, 298.15 K [mPa·s] | viscosity, 308.15 K [mPa·s]
x1 = 0.0521 | 838.68 | 829.81 | 1190 | 1155 | 1.84 | 1.452
x1 = 0.0995 | 872.8 | 863.45 | 1171 | 1136 | 1.734 | 1.373
x1 = 0.1503 | 909.09 | 899.13 | 1153 | 1117 | 1.611 | 1.283
x1 = 0.2009 | 944.84 | 934.26 | 1136 | 1099 | 1.492 | 1.196
x1 = 0.2497 | 979.01 | 967.92 | 1119 | 1082 | 1.374 | 1.111
x1 = 0.3057 | 1017.84 | 1006.01 | 1102 | 1064 | 1.235 | 1.011
x1 = 0.3499 | 1048.26 | 1036.01 | 1089 | 1052 | 1.155 | 0.952
x1 = 0.4031 | 1084.7 | 1071.81 | 1074 | 1036 | 1.049 | 0.886
x1 = 0.4509 | 1117.15 | 1103.72 | 1061 | 1023 | 0.968 | 0.818
x1 = 0.5055 | 1154.04 | 1139.98 | 1046 | 1009 | 0.885 | 0.76
x1 = 0.554 | 1186.48 | 1171.86 | 1035 | 998 | 0.822 | 0.714
x1 = 0.5994 | 1216.69 | 1201.5 | 1025 | 988 | 0.776 | 0.679
x1 = 0.651 | 1250.99 | 1235.18 | 1015 | 977 | 0.727 | 0.647
x1 = 0.7033 | 1285.41 | 1269.07 | 1006 | 968 | 0.705 | 0.618
x1 = 0.7505 | 1316.56 | 1299.61 | 999 | 961 | 0.666 | 0.602
x1 = 0.7999 | 1348.87 | 1331.42 | 993 | 955 | 0.64 | 0.585
x1 = 0.8507 | 1382.01 | 1363.98 | 987 | 950 | 0.625 | 0.572
x1 = 0.9002 | 1414.19 | 1395.63 | 984 | 947 | 0.605 | 0.557
x1 = 0.9484 | 1445.46 | 1426.51 | 983 | 947 | 0.586 | 0.539
x1 = 1 | 1478.82 | 1459.45 | 985 | 950 | 0.556 | 0.513

ClC(Cl)Cl [trichloromethane] + CCO
Conditions | mass density, 298.15 K [kg/m3] | mass density, 308.15 K [kg/m3] | speed of sound, 298.15 K [m/s] | speed of sound, 308.15 K [m/s] | viscosity, 298.15 K [mPa·s] | viscosity, 308.15 K [mPa·s]
x1 = 0.0522 | 834.86 | 824.87 | 1129 | 1092 | 1.085 | 0.902
x1 = 0.1007 | 879.76 | 868.7 | 1114 | 1076 | 1.07 | 0.89
x1 = 0.1468 | 920.98 | 909.11 | 1101 | 1062 | 1.043 | 0.869
x1 = 0.2014 | 968.01 | 955.3 | 1085 | 1046 | 1.003 | 0.836
x1 = 0.2505 | 1008.24 | 994.85 | 1071 | 1034 | 0.956 | 0.803
x1 = 0.3005 | 1047.8 | 1033.7 | 1057 | 1022 | 0.901 | 0.764
x1 = 0.3491 | 1084.58 | 1069.92 | 1045 | 1011 | 0.86 | 0.732
x1 = 0.3999 | 1121.8 | 1106.5 | 1033 | 1000 | 0.809 | 0.696
x1 = 0.4505 | 1157.08 | 1141.59 | 1021 | 991 | 0.767 | 0.665
x1 = 0.5045 | 1193.09 | 1177.49 | 1011 | 982 | 0.73 | 0.64
x1 = 0.5509 | 1223.51 | 1207.46 | 1003 | 975 | 0.694 | 0.613
x1 = 0.6007 | 1254.55 | 1238.37 | 996 | 967 | 0.668 | 0.596
x1 = 0.6492 | 1284.3 | 1267.81 | 990 | 962 | 0.644 | 0.58
x1 = 0.7008 | 1314.71 | 1297.8 | 985 | 957 | 0.629 | 0.569
x1 = 0.7496 | 1342.79 | 1325.84 | 982 | 953 | 0.615 | 0.562
x1 = 0.8059 | 1374.26 | 1357.1 | 981 | 950 | 0.601 | 0.551
x1 = 0.8544 | 1400.99 | 1383.35 | 980 | 949 | 0.596 | 0.549
x1 = 0.8994 | 1425.35 | 1407.35 | 981 | 949 | 0.588 | 0.544
x1 = 0.9498 | 1452.14 | 1433.5 | 983 | 948 | 0.576 | 0.531
x1 = 1 | 1478.82 | 1459.45 | 985 | 950 | 0.556 | 0.513

ClC(Cl)Cl [trichloromethane] + CO
Conditions | mass density, 298.15 K [kg/m3] | mass density, 308.15 K [kg/m3] | speed of sound, 298.15 K [m/s] | speed of sound, 308.15 K [m/s] | viscosity, 298.15 K [mPa·s] | viscosity, 308.15 K [mPa·s]
x1 = 0.0501 | 852.42 | 842 | 1080 | 1048 | 0.587 | 0.523
x1 = 0.0959 | 907.6 | 896.56 | 1060 | 1029 | 0.612 | 0.545
x1 = 0.1501 | 967.31 | 955.55 | 1041 | 1010 | 0.635 | 0.564
x1 = 0.2007 | 1018.13 | 1005.77 | 1028 | 997 | 0.651 | 0.576
x1 = 0.2499 | 1063.89 | 1050.91 | 1017 | 986 | 0.657 | 0.584
x1 = 0.3015 | 1107.99 | 1094.32 | 1007 | 976 | 0.663 | 0.586
x1 = 0.3502 | 1146.56 | 1132.48 | 1000 | 969 | 0.66 | 0.588
x1 = 0.3966 | 1180.85 | 1166.26 | 994 | 963 | 0.658 | 0.584
x1 = 0.4498 | 1217.39 | 1202.34 | 989 | 958 | 0.651 | 0.582
x1 = 0.5047 | 1252.37 | 1236.78 | 984 | 954 | 0.641 | 0.572
x1 = 0.5506 | 1279.51 | 1263.63 | 981 | 950 | 0.633 | 0.569
x1 = 0.6033 | 1308.68 | 1292.64 | 979 | 948 | 0.619 | 0.56
x1 = 0.6515 | 1333.97 | 1317.33 | 977 | 946 | 0.612 | 0.552
x1 = 0.7032 | 1359.31 | 1342.39 | 976 | 945 | 0.601 | 0.55
x1 = 0.751 | 1381.31 | 1363.96 | 976 | 944 | 0.592 | 0.536
x1 = 0.7987 | 1402.09 | 1384.31 | 976 | 944 | 0.583 | 0.531
x1 = 0.85 | 1423.32 | 1405.26 | 977 | 945 | 0.574 | 0.523
x1 = 0.902 | 1443.49 | 1425.07 | 979 | 946 | 0.567 | 0.516
x1 = 0.9505 | 1461.44 | 1442.54 | 982 | 948 | 0.561 | 0.515
x1 = 1 | 1478.82 | 1459.45 | 985 | 950 | 0.556 | 0.513

From the NIST ThermoML archive (doi:10.1016/j.jct.2006.03.010)
